This note sets out measurements from US6008233A, “(1S,2S)-1-(4-hydroxyphenyl)-2-(4- hydroxy-4-phenylipiperidin-1-yl)-1-propanolmethanesulfonate trihydrate” (Pfizer Inc, priority 1998, dated 1999).

Data set [1] in a line: Hygroscopicity at 0%, 52% and 98% controlled relative humidities and under ambient laboratory conditions. The format is physicochemical.
A short description of data set [2]: Hygroscopicity at ambient conditions of the anhydrous mesylate salt (Table 3). In kind it is physicochemical. From the text:
HYGROSCOPICITY AT AMBIENT CONDITIONS OF THE ANHYDROUS MESYLATE SALT

Data set [3] is described as follows: Equilibration of the anhydrous mesylate in an 81% RH environment. The format is physicochemical. To be noted: equilibrated in an 81% RH environment. The text has this: FIG. 1 depicts the X-ray powder diffraction spectrum of the mesylate trihydrate (taken on a Siemens D 5000 diffractometer after equilibration of the anhydrous mesylate at 81% relative humidity ("RH")), expressed as intensity (CPS) versus diffraction angle (two-theta degrees).

Data set [4] has as its system NMDA (N-methyl-D-aspartic acid) receptor. The data set can be described thus: NMDA receptor antagonist activity. The conditions noted are these: in words.
In another data set the test system is hippocampal cells. The data set can be described thus: Neuroprotective activity: glutamate toxicity in cultured fetal rat hippocampal cells (LDH release). The format is cell-based. To be noted: in words. The procedure:
The preferred procedure for evaluating the neuroprotective activity of this compound is that described by Ismail A. Shalaby, et al., in J. Pharm. and Experimental Therapeutics, 260, 925 (1992). This article is incorporated herein by reference in its entirety and described below.
Cell culture. […]
Glutamate toxicity. The cultures are assessed for glutamate toxicity 2 to 3 weeks from initial plating. […]
Cell viability is routinely assessed 20 to 24 hours after the excitotoxin exposure by measuring the activity of the cytosolic enzyme LDH. LDH activity is determined from the culture medium of each of the 96 wells of the microtiter plates. […] The 340 nm absorbance of the total reaction mixture for each of the 96 wells is monitored every 5 sec for 2 min by an automated spectrophotometric microtiter plate reader (Molecular Devices; Menlo Park, Calif.). The rate of absorbance is automatically calculated using an IBM SOFTmax program (version 1.01; Molecular Devices) and is used as the index of LDH activity.
Morphological assessment of neuronal viability is determined using phrase contrast microscopy. […] Quantitatively, both culture platings are equally sensitive to glutamate toxicity, and display 2- to 3-fold increases in LDH activity 24 hours after exposure to 0.1 to 1.0 mM glutamate. […]
(LDH in the medium is a marker of cell lysis.)

Data set [5] can be described thus: Bulk stability samples stored in polyethylene bags. In kind it is physicochemical. The conditions noted are these: 40° C./30% RH, 9 months. The procedure: Weight loss was also observed in bulk stability samples stored in polyethylene bags at 40° C./30% RH (>10% of weight was lost in 9 months).
Data set [6] can be described thus: Stability of crystalline form and shelf life compared to the anhydrous mesylate. The format is physicochemical. To be noted: compared with the corresponding anhydrous salt.

Structures are written as SMILES. Where a name gives a salt, the structure may show the parent alone.

In the case of `CC(C(O)c1ccc(O)cc1)N1CCC(O)(c2ccccc2)CC1` (centres unmarked) [anhydrous mesylate], the “re-equilibration to the hydrated form” value in data set [1] (anhydrous form exposed to higher humidities) is “quickly equilibrated to the hydrated form”. The “% Difference from Initial” value in data set [2] (1 hours since initial) worked out at 0.06%; in data set [2] (3.5 hours since initial), 0.06%; in data set [2] (22 hours since initial), 0.32%; in data set [2] (30.5 hours since initial), 0.56%; in data set [2] (45.5 hours since initial), 1.93%; in data set [2] (98 hours since initial), 2.57%. Further, the “% Difference from Initial” value in data set [2] (170 hours since initial) is 3.94%; in data set [2] (194 hours since initial), 3.94%; in data set [2] (215 hours since initial) it was 3.96%; in data set [2] (246 hours since initial) it was 4.22%; in data set [2] (382 hours since initial) it was 4.60%; in data set [2] (408 hours since initial) it was 4.40%. Further, the “% Difference from Initial” value in data set [2] (533 hours since initial) is recorded as 4.40%. Besides, the “% Difference from Prev. Weighing” value in data set [2] (1 hours since initial) stood at 0.06%; in data set [2] (3.5 hours since initial) it was 0.00%; in data set [2] (22 hours since initial), 0.26%; in data set [2] (30.5 hours since initial) it was 0.24%; in data set [2] (45.5 hours since initial), 1.36%; in data set [2] (98 hours since initial), 0.63%. For the same compound, the “% Difference from Prev. Weighing” value in data set [2] (170 hours since initial) was 1.33%; in data set [2] (194 hours since initial) it was 0.00%; in data set [2] (215 hours since initial), 0.02%; in data set [2] (246 hours since initial), 0.25%; in data set [2] (382 hours since initial) it was 0.37%; in data set [2] (408 hours since initial) it was -0.19%. In data set [2] (533 hours since initial), the “% Difference from Prev. Weighing” value came out at 0.00%. The “Weight of Sample” value in data set [2] (1 hours since initial) is 0.4977 g; in data set [2] (3.5 hours since initial), 0.4977 g; in data set [2] (22 hours since initial), 0.4990 g; in data set [2] (30.5 hours since initial), 0.5002 g; in data set [2] (45.5 hours since initial), 0.5070 g; in data set [2] (98 hours since initial) it was 0.5102 g. Besides, the “Weight of Sample” value is reported as 0.5170 g in data set [2] (170 hours since initial); 0.5170 g in data set [2] (194 hours since initial); 0.5171 g in data set [2] (215 hours since initial); 0.5184 g in data set [2] (246 hours since initial); 0.5203 g in data set [2] (382 hours since initial); 0.5193 g in data set [2] (408 hours since initial). Also, the “Weight of Sample” value is given as 0.5193 g in data set [2] (533 hours since initial) and 0.4974 g in data set [2] (initial). For the same compound, the “weight gain at ambient conditions” value in data set [2] (summary in words) was “substantial weight gain”. Moreover, in data set [3], the “conversion to the mesylate salt trihydrate” value is on record as “will convert to the mesylate salt trihydrate”.

As to `C[C@@H]([C@@H](O)c1ccc(O)cc1)N1CCC(O)(c2ccccc2)CC1` [free base, (1S,2S)-1-(4-hydroxyphenyl)-2-(4-hydroxy-4-phenylpiperidin-1-yl)-1-propanol], the “activity as NMDA receptor antagonist” value in data set [4] is on record as “exhibit activity as NMDA (N-methyl-D-aspartic acid) receptor antagonists”. The neuroprotective activity entry with hippocampal cells is on record as “possesses selective neuroprotective activity”.

For the compound `CC(C(O)c1ccc(O)cc1)N1CCC(O)(c2ccccc2)CC1` [mesylate salt trihydrate, (1S,2S)-1-(4-hydroxyphenyl)-2-(4-hydroxy-4-phenylpiperidin-1-yl)-1-propanol methanesulfonate trihydrate], in data set [1] (0% RH), the “loss of waters of hydration” value is given as “Loss of waters of hydration is observed”. For the same compound, the weight change result in data set [1] (52% RH) was “No weight change”; in data set [1] (98% RH), “No weight change”; in data set [1] (ambient laboratory conditions (24-27° C., 31-64% RH's)) it was “No weight change”. Besides, in data set [1] (exposure to higher humidities after 0% RH), the “reversibility of weight loss observed at 0% RH” value is recorded as “reversible”. This compound also had a weight lost in data set [5] greater than 10%. Besides, in data set [4], the “activity as NMDA receptor antagonist” value is on record as “exhibit activity as NMDA (N-methyl-D-aspartic acid) receptor antagonists”. In the data set with hippocampal cells, the neuroprotective activity entry is “possesses selective neuroprotective activity”. In addition, the “breakdown of the crystal structure” value in data set [6] is “less subject to breakdown of the crystal structure”. Also, in data set [6], the shelf life entry is given as “substantially longer shelf life”. The “stability of crystalline form” value in data set [6] is recorded as “more stable crystalline form than the corresponding anhydrous salt”.
